Results on nine compounds are retold here after patent US20230049572A1, “FORMULATION, COMPOSITION OR FOODSTUFF ADDITIVES FOR THE MODIFICATION OF GLYCEMIC RESPONSE METHODS OF MANUFACTURING AND USING THE SAME” (HOOW FOODS PTE. LTD., priority 2019, published 2023).

Like-named read-outs stand apart in the source and are kept apart here. Where only a bound is given, the exact number is not on record here.

Usually IC50 stands for the point on the concentration scale where inhibition reaches its midpoint.

For assay [1] the following is noted: per dose / per meal; cited from earlier work.
Assay [2] addresses T1, bakers yeast a-glucosidase (Saccharomyces cerevisiae, UniProt P53341).
T1 construct: purchased Sigma-Aldrich
The assay is described as follows: In vitro flavonoid inhibition of alpha-glucosidase (pNPG). Type of assay: biochemical. The method, then: The alpha-glucosidase inhibition was determined using purified alpha-glucosidase from yeast. An alpha-glucosidase reaction mixture contained 2.9 mM p-nitrophenyl-α-d-glucopyranoside (pNPG) (Sigma-Aldrich), 0.25 ml of flavonoid in DMSO and 0.6 U/ml of bakers yeast a-glucosidase (Sigma-Aldrich) in sodium phosphate buffer, pH 6.9. […] The reaction mixtures were incubated at 25° C. for 5 min, after which the reaction was stopped by boiling for 2 min. Absorbance of the resulting p-nitrophenol (pNP) were spectrophotometry determined at 405 nm and was considered directly proportional to the activity of the enzyme. Glucosidase activity inhibition was determined as percentage of control as follows:
In order to eliminate background readings, the absorbance of the flavenoid without substrate and enzyme was subtracted from absorbance of the flavonoid and substrate mixture as follows: Corrected A405 test samples=A405 flavonoid and substrate—A405 flavonoid alone (background).
The activity in controls (with a-glucosidase but without inhibitor) was considered to be 100%. […] Different flavonoids were compared on the basis of their ICso values estimated from the dose response curves.

In assay [3] the test system is alpha amylase. The assay is described as follows: Inhibition of alpha amylase (similar studies). It counts as biochemical.
Setting [4] is: pNPG 2.9 mM, pH 6.9, 25° C., 5 min, read-out: IC50, inhibition of yeast alpha-glucosidase.

T1 sequence (P53341 whole entry): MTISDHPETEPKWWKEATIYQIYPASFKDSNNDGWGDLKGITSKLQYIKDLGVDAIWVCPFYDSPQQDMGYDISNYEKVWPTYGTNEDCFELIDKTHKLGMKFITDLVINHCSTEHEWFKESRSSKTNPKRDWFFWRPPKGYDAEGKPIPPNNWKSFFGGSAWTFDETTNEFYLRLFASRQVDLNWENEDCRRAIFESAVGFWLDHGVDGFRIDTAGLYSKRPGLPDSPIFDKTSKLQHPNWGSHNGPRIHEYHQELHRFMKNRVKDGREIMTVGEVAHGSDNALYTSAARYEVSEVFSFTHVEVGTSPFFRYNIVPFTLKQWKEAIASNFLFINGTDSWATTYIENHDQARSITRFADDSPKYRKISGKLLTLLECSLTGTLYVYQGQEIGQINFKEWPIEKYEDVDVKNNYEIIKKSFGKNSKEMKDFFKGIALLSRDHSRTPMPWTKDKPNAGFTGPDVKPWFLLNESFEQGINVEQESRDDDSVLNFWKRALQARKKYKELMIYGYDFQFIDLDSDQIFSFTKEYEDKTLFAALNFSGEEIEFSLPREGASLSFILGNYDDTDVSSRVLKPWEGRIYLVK

Regarding `OC[C@H]1NC[C@H](O)[C@@H](O)[C@@H]1O` [1-DNJ, 1-deoxynojirimycin], the “upper efficacy limit / saturation dose above which no further reduction in glycemic response is obtained” value in assay [1] is on record as 250 mg.
In the case of `O=c1cc(-c2ccc(O)cc2)oc2cc(O)cc(O)c12` [Apigenin], the IC50 in assay [2] came out at 90 µM.
On the same count and under the same terms, under `O=c1cc(-c2ccccc2)oc2cc(O)c(O)c(O)c12` [Baicalein] stands 58 µM.
Turning to `O=c1cc(-c2ccccc2)oc2cc(O)cc(O)c12` [Chrysin], in assay [2] (read-out: inhibition of yeast alpha-glucosidase at fixed concentration), the inhibition at 200 µM is < 20%.
`O=C1c2c(O)cc(O)cc2O[C@H](c2cc(O)c(O)c(O)c2)[C@H]1O` [Dihydromyricetin, (2R,3R)-3,5,7-Trihydroxy-2-(3,4,5-trihydroxyphenyl)-2,3-dihydrochromen-4-one]: in assay [2], 4 µM corresponded to half-maximal inhibition (IC50) and the “enzyme inhibition (in words)” value was “powerful enzyme inhibitors”. Also, in assay [3], the “inhibition of amylase (in words)” value is listed as “effective at inhibiting amylase”.
Consider `O=c1cc(-c2ccc(O)c(O)c2)oc2cc(O)cc(O)c12` [Luteolin], for which, in assay [2] (setting [4]), the IC50 was 35 µM.
Take `O=c1c(O)c(-c2cc(O)c(O)c(O)c2)oc2cc(O)cc(O)c12` [Myricetin, 3,5,7-Trihydroxy-2-(3,4 trihydroxyphenyl)-4-chromenone]: in assay [2], the IC50 worked out at 3.6 µM and the “enzyme inhibition (in words)” value is on record as “powerful enzyme inhibitors”. Besides, the “inhibition of amylase (in words)” value in assay [3] is given as “effective at inhibiting amylase”.
In the case of `O=C(CCc1ccc(O)cc1)c1c(O)cc(O)cc1O` [Phloretin], the IC50 in assay [2] (setting [4]) amounted to 96 µM.
`O=c1c(O)c(-c2ccc(O)c(O)c2)oc2cc(O)cc(O)c12` [Quercetin, 2-(3,4-dihydroxyphenyl)-3,5,7-trihydroxy-4H-chromen-4-one]: the “enzyme inhibition (in words)” value in assay [2] is recorded as “powerful enzyme inhibitors”. Further, the “inhibition of amylase (in words)” value in assay [3] is reported as “effective at inhibiting amylase”.
